Experimental data taken from patent publication US20150259371A1, “METHODS AND COMPOUNDS FOR INHIBITING GLYCOSYLTRANSFERASES” (SIMON FRASER UNIVERSITY, priority 2010, published 2015).

Experiments:
[1] = system: N-glycosylation of IgG from mouse hybridoma cell line; experiment: Lectin blots of IgG immunoprecipitated from treated mouse hybridoma cells; format: cell-based; conditions: 0-1000 μM, 24 h
[2] = system: O-GlcNAc levels in mice tissues; experiment: O-GlcNAc levels in mouse tissues after intraperitoneal dosing; format: in vivo; conditions: 300 mg/kg intraperitoneally, 16 hours
Protocol: Ac-5SGlcNAc 9 and the deprotected analogue with the hexyl substituent at the C2 position 28 have been analyzed for effectiveness at decreasing O-GlcNAc levels in mice. Pilot studies were conducted with mice dosed in triplicate with either compound or vehicle alone. Compounds were dosed at 300 mg/kg intraperitoneally using 75% DMSO as vehicle for delivery of 9 and phosphate-buffered saline (PBS) for delivery of 28. Mice were euthanized using a CO2 chamber after 16 hours exposure to either compound, and tissues (liver, lung, heart, kidney, spleen, pancreas, brain, blood, fat and muscle) harvested and flash frozen in liquid nitrogen. Frozen tissues were ground using a pestle and mortar, and resuspended in cell lysis buffer (50 mM NaH2PO4, 150 mM NaCl, 0.1% SDS, 1% NP-40, 0.25% sodium deoxycholate, 1 mM EDTA, 30 mM sodium fluoride, 30 mM β-glycerophosphate, 5 mM sodium pyrophosphate, 1 mM Thiamet-G, protease inhibitor cocktail (Roche)) at a concentration of 100 mg tissue1 mL buffer prior to homogenization. Homogenates were centrifuged at 13,000 rpm for 20 min, the supernatant removed, added to 2×SDS-PAGE loading buffer and boiled for […]. SDS-PAGE and western blots were performed using standard procedures. Blots were probed using anti-O-GlcNAc antibody (CTD110.6, Santa Cruz Biotechnology) and anti-actin antibody for a loading control.

[3] = system: EMEG32 heterozygous mouse embryonic fibroblast cells; experiment: Cell proliferation growth curves over 5 days and western blot, EMEG32 heterozygous fibroblasts; format: cell-based; conditions: 50 μM, 5 days
Protocol: (A) Cell proliferation curves over the course of 5 days for CHO cells following no (circles), 50 μM Ac-GlcNAc (squares) or 50 μM Ac-5SGlcNAc (triangles) treatment. The error bars indicate the deviation from the mean for triplicate measurements. […] Upper panel, probed with anti-O-GlcNAc antibody (CTD110.6); lower panel, probed with anti-actin antibody. (B) Cell proliferation curves over the course of 5 days for EMEG heterozygous mouse embryonic fibroblast cells following no (circles), 50 μM Ac-GlcNAc (squares) or 50 μM Ac-5SGlcNAc (triangles) treatment. The error bars indicate the deviation from the mean for triplicate measurements. […] Upper panel, probed with anti-O-GlcNAc antibody (CTD110.6); lower panel, probed with anti-actin antibody. (C) Western blots of CHO cell lysates following no (C) or Ac-5SGlcNAc administration at 50 μM for 4 days. Probed with (from top to bottom) anti-Spl antibody, anti O-GlcNAc (CTD110.6) antibody and anti-actin antibody. Full blot of the anti-Sp 1 is shown in panel (d). (D) Western blots of CHO cell lysates following no (C) or Ac-5SGlcNAc administration at 50 μM for 4 days. The full blot probed with anti-Spl antibody is shown. (E) Western blots of COS-7 cell lysates following no (C) or 50 μM Ac-5SGlcNAc treatment for 24 h. Following treatment, the media was replaced with no inhibitor, and cells were harvested at the time points indicated (between 0 and 24 h). Upper panel, probed with anti-O-GlcNAc antibody (CTD110.6); lower panel, probed with anti-actin antibody.
Cellular responses to Ac-5SGlcNAc (9) treatment and consequent decreases in O-GlcNAc levels were evaluated. […] We quantitatively evaluated cell proliferation and established growth curves over the course of 5 days in both CHO and EMEG32 heterozygous mouse embryonic fibroblast cells treated with 50 μM Ac-5SGlcNAc (9), 50 μM Ac-GlcNAc (G), or vehicle (FIGS. 5A-B).

[4] = system: N-glycosylation in COS-7 cells; experiment: Lectin blots of glycans in treated COS-7 cells; format: cell-based, African green monkey; conditions: COS-7, 0-1000 μM, 24 h
Protocol: Westernlectin blots: Samples were run on 10% SDS polyacrylamide gels and transferred onto nitrocellulose membranes (Biorad). Membranes were blocked for 1 h in PBS containing 0.1% Tween-20 (PBS-T) containing 1% (unless otherwise stated) bovine serum albumin (BSA), and probed with the appropriate primary antibody or lectin in 1% BSA in PBS-T overnight at 4° C. Blots were washed for 1 hr with PBS-T, and blocked for a further 30 min with 1% BSA in PBS-T at room temperature. They were then probed with the appropriate horseradish peroxidise (HRP)-conjugated secondary antibodyprobe in 1% BSA in PBS-T at room temperature for 1 h, followed by washing in PBS-T for 1 h. […]
Antibodieslectins: O-GlcNAc levels were assessed primarily using CTD110.6 (Covance), but RL2 (Abcam) and HGAC85 (Abcam) were also tested. […] OGA levels were assessed using a polyclonal anti-OGA antibody which was a kind gift from Dr. Gerald Hart and OGT levels using H-300 (Santa Cruz Biotechnology). nup62 was probed using mAb 414 (Covance). […]
To assess whether cell surface glycosylation could be affected through changes in UDP-GlcNAc availability or inhibition of GlcNAc transferases within the secretory pathway, we treated COS-7 cells with a range of Ac-5SGlcNAc concentrations and evaluated the effect on various glycans using lectin blots. […]

[5] = system: O-GlcNAc levels in primary CLL cells; experiment: Western blot of O-GlcNAc levels in primary CLL cells; format: cell-based; conditions: 0-250 μM, 5 days
Protocol: Primary CLL cells, obtained from Dr. David Spaner at the University of Toronto, were tested for their response to Ac-5SGlcNAc (9). Cells were plated at a confluency of 1 million cells/mL, and treated with between 0-250 μM 9, in the presence or absence of cytokine (1000 U/mL IL-2 and 1 μg/mL Resiquimod) stimulation to mimic cancer progression. Cells were observed over the course of 5 days, and harvested after this time into SDS-PAGE loading buffer before being subjected to western blotting.

## CC(=O)NC1C(OC(C)=O)SC(COC(C)=O)C(OC(C)=O)C1OC(C)=O [Compound 9, N-Acetyl-1,3,4,6-tetra-O-acetyl-α-D-5-thio-glucosamine]
[1]
  GNA and ConA reactivity of hybridoma IgG: slight decrease in GNA and ConA reactivity when using a very high dose
[2]
  O-GlcNAc levels in tissues: effective at decreasing O-GlcNAc levels during the 16 hour dosing period in the liver, lung, heart, kidney, spleen, pancreas, fat and muscle
[3]; EMEG32 heterozygotes
  growth rate: indistinguishable but were both lower than vehicle treated cells
[3]; EMEG heterozygous cells
  O-GlcNAc levels at last time point of growth curve: O-GlcNAc levels are still significantly decreased in cells treated with Ac-5SGlcNAc
[4]
  glycosylation by lectin blots (ConA, GNA, PHA-L, SNA, MAA): All lectins tested showed no change in glycosylation
[5]
  O-GlcNAc levels: O-GlcNAc levels were decreased in a dose-dependent fashion
